Measurements taken from patent US20240148821A1, “PHARMACEUTICAL USE OF CYCLIC PEPTIDE COMPOUND” (CHUGAI SEIYAKU KABUSHIKI KAISHA, priority 2021, published 2024).
Numbered stars: 1 amine (or outer) side, 2 acyl side, 3 side chain; on linkers, the order of the positions; unused ones are H or OH. Bridge positions count the residues as written; N and C are the ends. Square brackets hold non-standard residues; d marks the D form. Peptide text beside a SMILES is read from it. * marks the point of attachment. hPhe(3-Cl-4-CF3) = N[C@@H](CCc1ccc(C(F)(F)F)c(Cl)c1)C(=O)O; hPhe(3-F,4-CF3) = N[C@@H](CCc1ccc(C(F)(F)F)c(F)c1)C(=O)O; NEtPhe(4-CF3) = CCN[C@@H](Cc1ccc(C(F)(F)F)cc1)C(=O)O; NMePhe(4-Cl) = CN[C@@H](Cc1ccc(Cl)cc1)C(=O)O; NMePhe(4-Me) = CN[C@@H](Cc1ccc(C)cc1)C(=O)O; NMedβ3hAla = C[C@H](CC(=O)[*:2])N(C)[*:1]; NMeGly(cPent) = CN[C@H](C(=O)O)C1CCCC1; Phe(3-I) = N[C@@H](Cc1cccc(I)c1)C(=O)O; NMeCha = CN[C@@H](CC1CCCCC1)C(=O)O; Hyp = O=C(O)[C@@H]1C[C@@H](O)CN1; NMeI = CC[C@H](C)[C@H](NC)C(=O)O; NMeE = CN[C@@H](CCC(=O)O)C(=O)O; NMeD = CN[C@@H](CC(=O)O)C(=O)O; NMeL = CN[C@@H](CC(C)C)C(=O)O; NMeV = CN[C@H](C(=O)O)C(C)C; d(β3hA) = C[C@@H](N)CC(=O)O; NMeS = CN[C@@H](CO)C(=O)O; dPip = O=C(O)[C@H]1CCCCN1; NMeA = CN[C@@H](C)C(=O)O; NMeAib = CNC(C)(C)C(=O)O; Nle = CCCC[C@H](N)C(=O)O; Piperidide = C1CCN(*)CC1; Pyrrolidide = C1CCN(*)C1; Ac5c = NC1(C(=O)O)CCCC1; Aze = O=C(O)[C@@H]1CCN1; Cyclobutyl = C1CC(*)C1; Sar = CNCC(=O)O; Propyl = CCC*

Columns and labels:
[1] = molecular target: protein-protein interaction between Kras and SOS1 (biotin-tagged human Kras loaded with GDP, His-tagged human SOS1) (Homo sapiens (Human), UniProt P01116, G12D); test: Protein-protein interaction inhibition between Kras and SOS1 (KrasG12D-SOS PPI) using AlphaScreen; type: biochemical; conditions: AlphaScreen; biotin-tagged human Kras loaded with GDP, His-tagged human SOS1; read-out: KRAS G12D-SOS PPI IC50;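 note: kras produced in E. coli, Ni-coupled donor beads and streptavidin acceptor beads, excitation 680 nm with emission detected at 520–620 nm via singlet oxygen transfer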
[2] = tested on: Human pancreatic cancer cell line AsPC-1 (G12D mutation Kras); test: AsPC-1 cell growth inhibition (AsPC-1 CGI); type: cell-based; conditions: read-out: AsPC-1 cell growth inhibition, 50% growth inhibitory concentration (IC50 value); 96 hours, CellTiter-Glo, values classified in ranges
Method: Test compounds were serially dilated with dimethyl sulfoxide, and 200 nL was then dispensed to a U-bottom 96-well plate using Labcyte Echo. […] The cell suspension was dispensed to a. plate containing a test compound at 100 μL per well and incubated at 37° C. in a 5% carbon dioxide gas incubator. 96 hours later, 80 μL of CellTiter-Glo (Promega) was added to each well and fluorescence was measured.

Which IC50 [1] does the source give for CC[C@H](C)[C@@H]1NC(=O)[C@H](CC(C)C)N(C)C(=O)C[C@@H](C)N(C)C(=O)[C@H]([C@@H](C)CC)NC(=O)C(C)(C)N(C)C(=O)[C@H](CC(C)C)NC(=O)[C@H](CCc2ccc(C(F)(F)F)c(F)c2)NC(=O)CN(C)C(=O)[C@H](Cc2ccc(Cl)cc2)N(C)C(=O)CN(C)C(=O)CN(C)C1=O [Compound 800] (cyclo(I[Sar][Sar][NMePhe(4-Cl)][Sar][hPhe(3-F,4-CF3)]L[NMeAib]I[NMedβ3hAla][NMeL])) here?
Its IC50 is 86 nM.

What about the IC50 [2] of the same compound?
The IC50 was > 500 nM.

What does the source list for CC[C@H](C)[C@@H]1NC(=O)[C@H](CC(C)C)N(C)C(=O)C[C@@H](C)NC(=O)[C@H](C(C)C)N(C)C(=O)C2(CCCC2)NC(=O)[C@@H]2CCCN2C(=O)[C@H](CCc2ccc(C(F)(F)F)c(Cl)c2)NC(=O)CN(C)C(=O)[C@H](CC2CCCCC2)N(C)C(=O)[C@@H]2CCN2C(=O)[C@H](CCC(=O)NC)N(C)C1=O [Compound 810] (cyclo([Ac5c][NMeV][d(β3hA)][NMeL]I[NMeE](NHMe)[Aze][NMeCha][Sar][hPhe(3-Cl-4-CF3)]P))?
IC50 [1]: 49 nM; IC50 [2]: > 500 nM

Which results are given for CCO[C@@H]1C[C@H]2C(=O)NC3(CCCC3)C(=O)N(C)[C@@H](C3CCCC3)C(=O)N(C)[C@H](C)CC(=O)N(C)[C@@H](CC(C)C)C(=O)N[C@@H]([C@@H](C)CC)C(=O)N(C)[C@@H](C)C(=O)N3CC[C@H]3C(=O)N(CC)[C@@H](Cc3ccc(C(F)(F)F)cc3)C(=O)N(C)CC(=O)N[C@@H](CCc3ccc(C(F)(F)F)c(Cl)c3)C(=O)N2C1 [Compound 816] (cyclo([Ac5c][NMeGly(cPent)][NMedβ3hAla][NMeL]I[NMeA][Aze][NEtPhe(4-CF3)][Sar][hPhe(3-Cl-4-CF3)][Hyp](Et)))?
IC50 [1]: 3.9 nM; IC50 [2]: ≤ 20 nM

For CCCC[C@@H]1NC(=O)[C@H](Cc2cccc(I)c2)NC(=O)CN(C)C(=O)[C@H](Cc2ccc(C)cc2)N(C)C(=O)[C@@H]2CCN2C(=O)[C@H](C)N(C)C(=O)[C@H]([C@@H](C)CC)NC(=O)[C@H](CC(C)C)N(C)C(=O)C[C@@H](C(=O)N2CCCCC2)N(C)C(=O)[C@H](CC(C)C)NC(=O)[C@H]2CCCN2C1=O [Compound 822] ([NMeL]I[NMeA][Aze][NMePhe(4-Me)][Sar][Phe(3-I)][Nle][dP]L[NMeD]-Piperidide; lactam N-11), which IC50 [1] is on record?
The IC50 was 150 nM.

And the IC50 [2]?
Its IC50 is > 500 nM.

CC[C@H](C)[C@@H]1NC(=O)[C@H](C)N(C)C(=O)C[C@@H](C(=O)N2CCCCC2)N(C)C(=O)[C@H](C(C)C)N(C)C(=O)C2(CCCC2)NC(=O)[C@@H]2CCCN2C(=O)[C@H](CCc2ccc(C(F)(F)F)c(Cl)c2)NC(=O)[C@H]2CCCCN2C(=O)[C@H](CC2CCCCC2)N(C)C(=O)[C@@H]2CCCN2C(=O)CN(C)C1=O [Compound 823] ([NMeA]I[Sar]P[NMeCha][dPip][hPhe(3-Cl-4-CF3)]P[Ac5c][NMeV][NMeD]-Piperidide; lactam N-11) was tested. Which IC50 [1] did it give?
The IC50 was 16 nM.

And the IC50 [2]?
Its IC50 is > 500 nM.

What does the source list for CC[C@H](C)[C@@H]1NC(=O)[C@H](CC(C)C)N(C)C(=O)C[C@@H](C(=O)N(C)C)N(C)C(=O)[C@H]([C@@H](C)CC)N(C)C(=O)[C@H](C)NC(=O)[C@@H]2CCCN2C(=O)[C@H](CCc2ccc(C(F)(F)F)c(Cl)c2)NC(=O)CN(C)C(=O)[C@H](Cc2ccc(C)cc2)N(C)C(=O)[C@@H]2CCN2C(=O)[C@H](C)N(C)C1=O [Compound 829] ([NMeL]I[NMeA][Aze][NMePhe(4-Me)][Sar][hPhe(3-Cl-4-CF3)]PA[NMeI][NMeD]-NMe2; lactam N-11)?
IC50 [1]: 2.3 nM; IC50 [2]: > 500 nM

CC[C@H](C)[C@@H]1NC(=O)[C@H](CC(C)C)N(C)C(=O)C[C@@H](C(=O)N2CCCCC2)N(C)C(=O)[C@H](C2CCCC2)N(C)C(=O)C2(CCCC2)NC(=O)[C@@H]2CCCN2C(=O)[C@H](CCc2ccc(C(F)(F)F)c(Cl)c2)NC(=O)CN(C)C(=O)[C@H](COC2CCC2)N(C)C(=O)[C@@H]2CCN2C(=O)[C@H](C)N(C)C1=O [Compound 835] ([NMeL]I[NMeA][Aze][NMeS](Cyclobutyl)[Sar][hPhe(3-Cl-4-CF3)]P[Ac5c][NMeGly(cPent)][NMeD]-Piperidide; lactam N-11) was tested. Which IC50 [1] did it give?
Its IC50 is 0.54 nM.

And the IC50 [2]?
The IC50 was ≤ 20 nM.

What does the source list for CCCOC[C@H]1C(=O)N(C)CC(=O)N[C@@H](CCc2ccc(C(F)(F)F)c(Cl)c2)C(=O)N2CCC[C@H]2C(=O)NC2(CCCC2)C(=O)N(C)[C@@H](C2CCCC2)C(=O)N(C)[C@H](C(=O)N2CCCC2)CC(=O)N(C)[C@@H](CC(C)C)C(=O)N[C@@H]([C@@H](C)CC)C(=O)N(C)[C@@H](C)C(=O)N2CC[C@H]2C(=O)N1C [Compound 836] ([NMeL]I[NMeA][Aze][NMeS](Propyl)[Sar][hPhe(3-Cl-4-CF3)]P[Ac5c][NMeGly(cPent)][NMeD]-Pyrrolidide; lactam N-11)?
IC50 [1]: 0.66 nM; IC50 [2]: ≤ 20 nM

With CC[C@H](C)[C@@H]1NC(=O)[C@H](CC(C)C)N(C)C(=O)C[C@@H](C(=O)N(C)C)N(C)C(=O)[C@H]([C@@H](C)CC)N(C)C(=O)C2(CCCC2)NC(=O)[C@@H]2CCCN2C(=O)[C@H](CCc2ccc(C(F)(F)F)c(Cl)c2)NC(=O)CN(C)C(=O)[C@H](Cc2ccc(C)cc2)N(C)C(=O)[C@@H]2CCN2C(=O)[C@H](C)NC1=O [Compound 840] ([NMeL]IA[Aze][NMePhe(4-Me)][Sar][hPhe(3-Cl-4-CF3)]P[Ac5c][NMeI][NMeD]-NMe2; lactam N-11) as the compound, how does the IC50 [1] read?
Its IC50 is 1.2 nM.

And the IC50 [2]?
The IC50 was ≤ 20 nM.
